What was measured:
Daporinad + Dasatinib = compound: O=C(/C=C/c1cccnc1)NCCCCC1CCN(C(=O)c2ccccc2)CC1 [Daporinad] + Cc1nc(Nc2ncc(C(=O)Nc3c(C)cccc3Cl)s2)cc(N2CCN(CCO)CC2)n1 [Dasatinib] (partner 0.075 µM); assay: relative viability (nuclei count vs DMSO), 5 days (fraction); higher = more cells survive
How it was run: (§1)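 Each reported value is a median over duplicate plates. It expresses relative viability: treated-well nuclei count divided by vehicle-well nuclei count. Lung cancer cell lines in 1536-well plates were dosed by pin tool a day after seeding, alone with one drug or with a fixed anchor-drug dose plus five library-drug doses (not always all listed) in √10 steps, and nuclei were counted after 5 days.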

R406 + Trametinib = compound: COc1cc(Nc2ncc(F)c(Nc3ccc4c(n3)NC(=O)C(C)(C)O4)n2)cc(OC)c1OC [R406] + CC(=O)Nc1cccc(-n2c(=O)n(C3CC3)c(=O)c3c(Nc4ccc(I)cc4F)n(C)c(=O)c(C)c32)c1 [Trametinib] (partner 0.02 µM); assay: as above
How it was run: as §1

Cell Line | relative viability (Daporinad + Dasatinib; first compound 0.0005 µM) | relative viability (Daporinad + Dasatinib; first compound 0.001581 µM) | relative viability (Daporinad + Dasatinib; first compound 0.005 µM) | relative viability (Daporinad + Dasatinib; first compound 0.01581 µM) | relative viability (R406 + Trametinib; first compound 0.08 µM) | relative viability (R406 + Trametinib; first compound 0.253 µM) | relative viability (R406 + Trametinib; first compound 0.8 µM) | relative viability (R406 + Trametinib; first compound 2.53 µM) | relative viability (R406 + Trametinib; first compound 8 µM)
SK-LU-1 | 0.209 | 0.184 | 0.204 | 0.235 | 0.535 | 0.531 | 0.55 | 0.157 | 0.195
NCI-H23 | 0.895 | 0.699 | 0.85 | 0.829 | 0.288 | 0.376 | 0.444 | 0.399 | 0.128
HCC-366 | 0.697 | 0.738 | 0.646 | 0.738 | 0.342 | 0.411 | 0.42 | 0.234 | 0.0517
EMC-BAC-2 | 0.359 | 0.362 | 0.387 | 0.319 | 0.907 | 0.956 | 0.804 | 1.06 | 0.917
NCI-H2405 | 0.168 | 0.226 | 0.231 | 0.252 | 0.584 | 0.699 | 0.615 | 0.447 | 0.299
NCI-H1944 | 0.228 | 0.232 | 0.221 | 0.237 | 0.401 | 0.453 | 0.364 | 0.385 | 0.319
NCI-H1648 |  |  |  |  | 0.564 | 0.432 | 0.557 | 0.463 | 0.4
NCI-H358 | 0.135 | 0.174 | 0.175 | 0.158 | 0.131 | 0.144 | 0.14 | 0.0877 | 0.103
EPLC-272H | 0.393 | 0.482 | 0.458 | 0.473 | 0.324 | 0.333 | 0.305 | 0.166 | 0.21
NCI-H1915 | 0.299 | 0.331 | 0.399 | 0.337 | 0.324 | 0.334 | 0.313 | 0.268 | 0.197
NCI-H647 | 0.146 | 0.27 | 0.282 | 0.196 | 0.534 | 0.359 | 0.6 | 0.239 | 0.0884
NCI-H322M | 0.272 | 0.266 | 0.259 | 0.259 | 0.515 | 0.532 | 0.452 | 0.475 | 0.421
NCI-H2228 | 0.543 | 0.563 | 0.569 | 0.554 | 0.501 | 0.503 | 0.731 | 0.0769 | 0.432
NCI-H522 | 1.01 | 0.924 | 0.88 | 0.843 | 0.779 | 0.917 | 0.787 | 0.746 | 0.599
NCI-H650 | 0.391 | 0.395 | 0.473 | 0.53 | 0.949 | 1.06 | 1 | 0.818 | 0.819
NCI-H2170 | 0.631 | 0.465 | 0.616 | 0.566 | 0.923 | 0.99 | 1.02 | 0.647 | 0.842
NCI-H1793 | 0.43 | 0.397 | 0.418 | 0.499 | 0.448 | 0.537 | 0.411 | 0.422 | 0.16
NCI-H2085 | 0.268 | 0.244 | 0.267 | 0.284 | 0.591 | 0.634 | 0.545 | 0.498 | 0.226
NCI-H838 | 0.276 | 0.29 | 0.296 | 0.296 | 0.526 | 0.598 | 0.684 | 0.256 | 0.115

Cell Line | relative viability (Daporinad + Dasatinib; first compound 0.0005 µM) | relative viability (Daporinad + Dasatinib; first compound 0.001581 µM) | relative viability (Daporinad + Dasatinib; first compound 0.005 µM) | relative viability (Daporinad + Dasatinib; first compound 0.01581 µM) | relative viability (R406 + Trametinib; first compound 0.08 µM) | relative viability (R406 + Trametinib; first compound 0.253 µM) | relative viability (R406 + Trametinib; first compound 0.8 µM) | relative viability (R406 + Trametinib; first compound 2.53 µM) | relative viability (R406 + Trametinib; first compound 8 µM)
NCI-H460 | 0.575 | 0.639 | 0.489 | 0.505 | 0.0847 | 0.4 | 0.258 | 0.0114 | 0.0382
LOU-NH91 | 0.544 | 0.497 | 0.654 | 0.745 | 0.804 | 0.8 | 0.759 | 0.621 | 0.549
NCI-H3122 | 0.664 | 0.73 | 0.807 | 0.59 | 0.234 | 0.218 | 0.206 | 0.241 | 0.234
NCI-H520 | 0.248 | 0.227 | 0.162 | 0.182 | 0.665 | 0.792 | 0.935 | 0.258 | 0.124
NCI-H661 | 0.939 | 1 | 0.518 | 0.388 | 0.561 | 0.604 | 0.57 | 0.489 | 0.366
NCI-H727 | 0.475 | 0.327 | 0.437 | 0.364 | 0.416 | 0.344 | 0.453 | 0.406 | 0.372
NCI-H1623 | 0.537 | 0.463 | 0.542 | 0.525 |  |  |  |  | 
NCI-H1734 | 0.566 | 0.489 | 0.495 | 0.462 | 0.637 | 0.685 | 0.715 | 0.575 | 0.383
LXF-289 | 0.178 | 0.292 | 0.214 | 0.289 | 0.675 | 0.694 | 0.68 | 0.67 | 0.672
H3255 | 0.391 | 0.387 | 0.491 | 0.443 | 0.549 | 0.693 | 0.563 | 0.577 | 0.487
201T | 0.52 | 0.555 | 0.595 | 0.6 | 0.696 | 0.72 | 0.726 | 0.674 | 0.679
NCI-H2126 | 0.681 | 0.57 | 0.547 | 0.727 | 0.609 | 0.535 | 0.511 | 0.519 | 0.522
HOP-62 | 0.62 | 0.809 | 0.721 | 0.587 | 0.379 | 0.388 | 0.427 | 0.37 | 0.339
CAL-12T | 0.342 | 0.409 | 0.37 | 0.134 | 0.343 | 0.351 | 0.378 | 0.312 | 0.175
NCI-H596 | 0.68 | 0.677 | 0.692 | 0.576 | 0.814 | 0.909 | 0.775 | 0.72 | 0.196
NCI-H1755 | 0.414 | 0.435 | 0.388 | 0.408 | 0.679 | 0.788 | 0.714 | 0.704 | 0.465
NCI-H2023 | 0.504 | 0.711 | 0.631 | 0.72 | 0.499 | 0.562 | 0.582 | 0.286 | 0.129
NCI-H2009 | 0.295 | 0.337 | 0.277 | 0.22 | 0.275 | 0.275 | 0.323 | 0.213 | 0.136

From the supplement of paper PMC10307832
